What follows are molecules tested against human CRTH2 receptor (Homo sapiens (Human), UniProt Q9Y5Y4) (assay: CRTH2 receptor radioligand binding assay (SPA, [3H]-PGD2 displacement)). Conditions: antagonistic activities of selected compounds.
Experimental: The binding of CRTH2 antagonists is determined using membranes prepared from Chinese hamster ovary cells (CHO-K1 cells) transfected with the human CRTH2 receptor (CHO-K1-hCRTH2 cells, Perkin Elmer, Cat No ES-561-C). To produce cell membranes the CHO-K1-hCRTH2 cells are cultured in suspension in CHO SFMII medium supplemented with 400 μg/ml G418. The cells are harvested by centrifugation at 300 g for 10 min at room temperature. The cell pellet is resuspended in Phosphate Buffer Saline (PBS) including a protease inhibitor mix (Complete, Roche) and adjusted to a concentration of 10E7 cells/ml. The CHO-K1-hCRTH2 cells are disrupted by nitrogen […] to obtain the membrane preparation. Cell debris is removed by centrifugation (500 g at 4° C., 30 min) and the supernatant is transferred into fresh tubes followed by a second centrifugation at 40000 g for 1 h at 4° C. to sediment the membranes. The membranes are suspended in SPA incubation buffer (50 mM Tris HCl, 10 mM MgCl2, 150 mM NaCl, 1 mM EDTA, pH 7.4) without bovine serum albumin, homogenized by passing through a single use needle (Terumo, 23G×1″), and stored in aliquots at −80° C.
The CRTH2 receptor binding assay is performed in a scintillation proximity assay (SPA) format with the radioligand [^3H]-PGD2 (Perkin Elmer, NET616000MC). CHO-K1-hCRTH2 cell membranes are again homogenized by passing through a single use needle (Terumo, 23G×1″) and diluted in SPA incubation buffer in suitable concentrations (0.5-10 μg protein/well). The SPA assay is set up in 96 well microtiter plates (Perkin Elmer, CatNo. 6005040) in SPA incubation buffer with a final volume of 200 μl per well and final concentration of 50 mM Tris-HCl, 10 mM MgCl2, 150 mM NaCl, 1 mM EDTA pH 7.4, 0.1% bovine serum albumin). The SPA assay mixture contains 60 μl of the membrane suspension, 80 μl of Wheat Germ Agglutinin coated PVT beads (GE Healthcare, RPNQ-0001, 0.3 mg/well), 40 μl of [^3H]-PGD2 diluted in SPA buffer to a final concentration of 1 nM (50 000 dpm) and 20 μl of the test compound (dissolved in dimethylsulfoxid). The SPA assay mixture is incubated for 3 h at room temperature. Bound radioactivity is determined with a scintillation counter (Micro Beta Trilux, Wallac).
The binding of [^3H]-PGD2 to CHO-K1-hCRTH2 cell membranes is determined in the absence (total binding, Bo) and presence (non-specific binding, NSB) of unlabelled PGD2 (1 μM, Cayman Chemical, Cat No 12010) or a reference CRTH2 antagonist (10 μM CAY10471, Cayman Chemical, Cat No 10006735).
Determination of the affinity of a test compound is calculated by subtraction of the non-specific binding (NSB) from the total binding (Bo) or the binding in the presence of the test compound (B) at a given compound concentration. The NSB value is set to 100% inhibition. The Bo−NSB value is set to 0% inhibition.
% inhibition values were obtained at a defined compound concentration, e.g. at 1 μM, % inhibition of the test compound was calculated by the formula 100−((B−NSB)*100/(Bo−NSB)). % inhibition values above 100% are founded by assay variance.

Sequence of human CRTH2 receptor (Q9Y5Y4 whole entry): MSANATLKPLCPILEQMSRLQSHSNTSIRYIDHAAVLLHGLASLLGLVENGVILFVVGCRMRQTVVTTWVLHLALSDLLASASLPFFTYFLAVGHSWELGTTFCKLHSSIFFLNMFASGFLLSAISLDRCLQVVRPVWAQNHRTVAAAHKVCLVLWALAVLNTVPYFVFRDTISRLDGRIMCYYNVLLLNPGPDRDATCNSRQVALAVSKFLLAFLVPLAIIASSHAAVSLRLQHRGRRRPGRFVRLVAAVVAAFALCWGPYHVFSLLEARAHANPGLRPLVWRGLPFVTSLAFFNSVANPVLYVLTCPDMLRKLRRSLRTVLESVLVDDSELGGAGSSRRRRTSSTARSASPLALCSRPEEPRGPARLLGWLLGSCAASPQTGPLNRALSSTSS

Molecule | Ki [nM]
Cc1nn(Cc2ccc(-c3nc4c(C)cccc4[nH]3)cc2)c(C)c1CC(=O)O [Compound 63] | 10
CCc1nn(Cc2ccc(-c3nc4cc(Cl)ccc4n3C)cc2)c(CC)c1CC(=O)O [Compound 69] | 61.2
Cc1nn(Cc2ccc(-c3nc4cncnc4[nH]3)cc2)c(C)c1CC(=O)O [Compound 70] | 432
Cc1nn(Cc2ccc(-c3nc4cc(F)ccc4[nH]3)cc2)c(C)c1CC(=O)O [Compound 71] | 8.5
Cc1nn(Cc2ccc(-c3nc4ccncc4[nH]3)cc2F)c(C)c1CC(=O)O [Compound 72] | 636
Cc1nn(Cc2ccc(-c3nc4c(F)cc(F)cc4[nH]3)cc2F)c(C)c1CC(=O)O [Compound 77] | 5.5
Cc1nn(Cc2ccc(-c3nc4cc(C#N)ccc4[nH]3)cc2F)c(C)c1CC(=O)O [Compound 78] | 21.7
Cc1nn(Cc2ccc(-c3nc4cncc(C)c4[nH]3)cc2F)c(C)c1CC(=O)O [Compound 85] | 683
Cc1nn(Cc2ccc(-c3nc4cc(F)ccc4[nH]3)cc2F)c(C)c1CC(=O)O [Compound 86] | 6.5
CCc1nn(Cc2ccc(-c3nc4ccncc4[nH]3)cc2F)c(CC)c1CC(=O)O [Compound 90] | 60.9
Cc1nn(Cc2ccc(-c3nc4c(C)cccc4[nH]3)cc2F)c(C)c1CC(=O)O [Compound 93] | 12.8
CCc1nn(Cc2ccc(-c3nc4cc(Cl)cnc4[nH]3)cc2F)c(CC)c1CC(=O)O [Compound 95] | 5.1
COc1ccc2[nH]c(-c3ccc(Cn4nc(C)c(CC(=O)O)c4C)c(F)c3)nc2c1 [Compound 96] | 5.7
Cc1nn(Cc2ccc(-c3nc4c(F)cccc4[nH]3)cc2F)c(C)c1CC(=O)O [Compound 99] | 9.7
Cc1nn(Cc2ccc(-c3nc4cc(Cl)cnc4[nH]3)cc2F)c(C)c1CC(=O)O [Compound 100] | 18.5
CCc1nn(Cc2ccc(-c3nc4cncc(C)c4[nH]3)cc2F)c(CC)c1CC(=O)O [Compound 103] | 87.6
Cc1nn(Cc2ccc(-c3nc4c(F)c(F)ccc4[nH]3)cc2F)c(C)c1CC(=O)O [Compound 105] | 5.1
Cc1nn(Cc2ccc(-c3nc4cccnc4[nH]3)cc2F)c(C)c1CC(=O)O [Compound 107] | 87.4
Cc1nn(Cc2cccc(-c3nc4cc(C(F)(F)F)ccc4[nH]3)c2)c(C)c1CC(=O)O [Compound 110] | 287
(3,5-Diethyl-1-[2-fluoro-4-(3H-imidazo[4,5-b]pyridin-2-yl)benzyl]-1H-pyrazol-4-yl)acetic Acid [Compound 13] | 16.2

The next molecules have a lower Ki than those just listed; values first:

Ki [nM] | Molecule
3.1 | CCc1nn(Cc2ccc(-c3nc4nc(OC)ccc4[nH]3)cc2)c(CC)c1CC(=O)O [Compound 64]
0.4 | CCc1nn(Cc2ccc(-c3nc4c(Cl)cc(Cl)cc4[nH]3)cc2)c(CC)c1CC(=O)O [Compound 65]
1 | Cc1nn(Cc2ccc(-c3nc4c(Cl)cc(Cl)cc4[nH]3)cc2)c(C)c1CC(=O)O [Compound 66]
1.7 | CCc1nn(Cc2ccc(-c3nc4c(F)cccc4[nH]3)cc2)c(CC)c1CC(=O)O [Compound 67]
0.2 | CCc1nn(Cc2ccc(-c3nc4cc(C(C)(C)C)ccc4[nH]3)cc2)c(CC)c1CC(=O)O [Compound 68]
2.5 | Cc1nn(Cc2ccc(-c3nc4c(Cl)cc(Cl)cc4[nH]3)cc2F)c(C)c1CC(=O)O [Compound 73]
1.2 | CCc1nn(Cc2ccc(-c3nc4c(F)cccc4[nH]3)cc2F)c(CC)c1CC(=O)O [Compound 74]
1 | CCc1nn(Cc2ccc(-c3nc4cc(OC)ccc4[nH]3)cc2F)c(CC)c1CC(=O)O [Compound 75]
0.6 | CCc1nn(Cc2ccc(-c3nc4cc(F)c(Cl)cc4[nH]3)cc2F)c(CC)c1CC(=O)O [Compound 76]
1.3 | CCc1nn(Cc2ccc(-c3nc4nc(OC)ccc4[nH]3)cc2F)c(CC)c1CC(=O)O [Compound 79]
0.5 | CCc1nn(Cc2ccc(-c3nc4cc(Cl)ccc4[nH]3)cc2F)c(CC)c1CC(=O)O [Compound 80]
2.6 | CCc1nn(Cc2ccc(-c3nc4cc(C#N)ccc4[nH]3)cc2F)c(CC)c1CC(=O)O [Compound 81]
1 | CCc1nn(Cc2ccc(-c3nc4cc(F)ccc4[nH]3)cc2F)c(CC)c1CC(=O)O [Compound 82]
1.3 | CCc1nn(Cc2ccc(-c3nc4c(C)cccc4[nH]3)cc2F)c(CC)c1CC(=O)O [Compound 83]
0.8 | CCc1nn(Cc2ccc(-c3nc4c(F)c(F)ccc4[nH]3)cc2F)c(CC)c1CC(=O)O [Compound 84]
0.4 | CCc1nn(Cc2ccc(-c3nc4cc(Br)ccc4[nH]3)cc2F)c(CC)c1CC(=O)O [Compound 87]
2.6 | CCc1nn(Cc2ccc(-c3nc4cc(Br)cnc4[nH]3)cc2F)c(CC)c1CC(=O)O [Compound 89]
3.7 | Cc1ccc2[nH]c(-c3ccc(Cn4nc(C)c(CC(=O)O)c4C)c(F)c3)nc2c1 [Compound 91]
0.7 | COc1ccc2[nH]c(-c3ccc(Cn4nc(C)c(CC(=O)O)c4C)c(F)c3)nc2n1 [Compound 92]
1.6 | Cc1nn(Cc2ccc(-c3nc4cc(Br)ccc4[nH]3)cc2F)c(C)c1CC(=O)O [Compound 94]
0.9 | Cc1nn(Cc2ccc(-c3nc4cc(C(C)(C)C)ccc4[nH]3)cc2F)c(C)c1CC(=O)O [Compound 97]
0.1 | CCc1nn(Cc2ccc(-c3nc4cc(C(C)(C)C)ccc4[nH]3)cc2F)c(CC)c1CC(=O)O [Compound 98]
1.1 | CCc1nn(Cc2ccc(-c3nc4c(F)cc(F)cc4[nH]3)cc2F)c(CC)c1CC(=O)O [Compound 101]
2.1 | Cc1nn(Cc2ccc(-c3nc4cc(F)c(Cl)cc4[nH]3)cc2F)c(C)c1CC(=O)O [Compound 102]
0.7 | CCc1nn(Cc2ccc(-c3nc4c(Cl)cc(Cl)cc4[nH]3)cc2F)c(CC)c1CC(=O)O [Compound 104]
0.3 | CCc1nn(Cc2ccc(-c3nc4cc(C)c(Cl)cc4[nH]3)cc2F)c(CC)c1CC(=O)O [Compound 106]
2.3 | Cc1nn(Cc2ccc(-c3nc4cc(Cl)ccc4[nH]3)cc2F)c(C)c1CC(=O)O [Compound 108]
1.8 | Cc1cc2nc(-c3ccc(Cn4nc(C)c(CC(=O)O)c4C)c(F)c3)[nH]c2cc1Cl [Compound 109]
2.5 | Cc1nn(Cc2ccc(-c3nc4cc(C(F)(F)F)ccc4[nH]3)cc2F)c(C)c1CC(=O)O [Compound 111]
